Activity calls are given as the source filed them. The rule behind the calls is not given here.
Test system: MRP1 cells, doxorubicin viability shift, 10 uM compound
Assay: viability protection against doxorubicin, MRP-1 line – cell-based, doxorubicin EC50 shift, dose response (AID 844)
Details: for EC50: measured here: doxorubicin EC50 with compound

Structure (SMILES)	fold increase in Dox EC50	EC50 [µM]
O=C(CC1SC(=O)N(c2ccccc2)C1=O)Nc1ccccc1 (stereo unspecified)	1.19 (inactive)	6.42
CCOc1ccc(-c2nc(C#N)c(N3CCCCCC3)o2)cc1	0.56 (inactive)	3.04
COc1ccc(-c2cc(C(=O)Nc3sc4c(c3C#N)CCCC4)c3ccccc3n2)cc1	1.18 (inactive)	6.37
Oc1c(C(c2cccs2)N2CCN(c3ccc(F)cc3)CC2)sc2ncnn12 (stereo unspecified)	1.32 (inactive)	7.1
COc1cccc(C2CC(c3ccc(Cl)cc3Cl)n3nc(N)nc3N2)c1 (stereo unspecified)	1.03 (inactive)	5.56
O=C1[C@@H]2[C@H](Cc3ccc(O)cc3)N[C@]3(C(=O)Nc4ccccc43)[C@@H]2C(=O)N1c1ccc(F)cc1	1.46 (inactive)	7.88
CCOc1ccccc1C(=O)OCC(=O)Nc1ccc(OC(F)F)cc1	0.93 (inactive)	5.04
COc1ccc(-c2c(C#N)c(N)nc3sc(C(=O)c4ccccc4)c(N)c23)cc1	0.34 (inactive)	1.86
Cc1ccc2[nH]c(=O)c(C(c3nnnn3C3CCCC3)N3CCCc4ccccc43)cc2c1 (stereo unspecified)	1 (inactive)	5.41
Cn1c(=O)oc2cc(S(=O)(=O)N3CCCC(C(=O)NCC4COc5ccccc5O4)C3)ccc21 (stereo unspecified)	0.53 (inactive)	2.86
CN=c1scc(C)n1/N=C/c1ccc(O)c(O)c1O	0.92 (inactive)	4.95
O=c1nc2s/c(=C\c3ccc(-c4ccccc4[N+](=O)[O-])o3)c(=O)n2nc1-c1ccccc1	1.43 (inactive)	7.73
O=C(Nc1nc(-c2ccccc2)cs1)c1ccc(Br)o1	1.41 (inactive)	7.64
O=C1CCCC(O)=C1N=Nc1ccc2c(c1)OCO2	1.17 (inactive)	6.29
Cc1cc2n(n1)C(c1ccccc1)CC(c1ccc(Br)cc1)=N2 (stereo unspecified)	0.76 (inactive)	4.12
CC1=C(C(=O)Nc2ccccc2)C(c2ccc(C)o2)N2C(=O)CSC2=N1 (stereo unspecified)	0.84 (inactive)	4.55
O=C(O)c1cccc(N2C(=O)C3CC=C(Cl)CC3C2=O)c1 (stereo unspecified)	1.48 (inactive)	7.97
COc1cccc(/C=N/NC(=O)Cn2nc(C)c([N+](=O)[O-])c2C)c1O	0.12 (inactive)	0.673
O=C(Nc1ncc(Cc2ccccc2Cl)s1)c1ccc(-c2cccc([N+](=O)[O-])c2)o1	0.81 (inactive)	4.38
CCCCc1ccc(NC(=O)c2c(C)noc2C)cc1	1.23 (inactive)	6.63
COc1ccc(OC)c(-c2cc(C(=O)Nc3c(C)nn(Cc4ccccc4C)c3C)no2)c1	0.65 (inactive)	3.49
CC1(C)CC(=O)C2=C(C1)N=C1SCCC(=O)N1C2c1ccc(C(F)(F)F)cc1 (stereo unspecified)	1.21 (inactive)	6.51
CCCCOc1ccc(/C=C/C(=O)Nc2ccc([N+](=O)[O-])cc2C)cc1	1.17 (inactive)	6.3
Cc1cccc(N2CCN(C(=O)c3cc4c(=O)n(C)c5ccccc5c4n3C)CC2)c1C	0.08 (inactive)	0.44
CCC(Sc1nc(-c2ccccc2)c(C#N)c(=O)[nH]1)C(=O)Nc1cc(C)on1 (stereo unspecified)	1.56	8.41
COc1ccc([N+](=O)[O-])cc1NC(=O)COC(=O)/C=C/c1ccco1	0.99 (inactive)	5.32
CC(C)N(Cc1cc2ccccc2[nH]c1=O)C(=O)C(C)(C)C	1.47 (inactive)	7.93

Structure (SMILES)	fold increase in Dox EC50	EC50 [µM]
O=C(NC(=S)Nc1ccccc1N1CCOCC1)c1ccc(-c2cccc(Cl)c2)o1	0.41 (inactive)	2.22
CCOc1cc(/C=C2\SC(=Nc3ccccc3)N(c3ccccc3)C2=O)ccc1OCC(=O)O	0.94 (inactive)	5.09
O=C(COc1ccc(F)cc1)Nc1ccc(-n2cnnn2)cc1	0.75 (inactive)	4.04
Cc1ccc(OCc2nc(-c3ccc(Cl)cc3)n[nH]2)cc1	0.79 (inactive)	4.24
Cc1cccc2cc(CN(Cc3cccs3)S(=O)(=O)c3ccc4c(c3)OCCO4)c(=O)[nH]c12	1.47 (inactive)	7.94
Cc1cc(C)cc(NC(=O)c2oc3ccccc3c2COc2ccccc2)c1	0.88 (inactive)	4.78
CCCCOC(=O)Nc1ccc(C(C)C)cc1	0.78 (inactive)	4.21
Cc1ccc(OCc2nnc(SCC(=O)Nc3cccc4ccccc34)n2-c2ccccc2)cc1	0.33 (inactive)	1.8
Cc1ccc(NC(=O)CSc2nnc(-c3cccs3)n2Cc2ccco2)cc1	0.78 (inactive)	4.24
CCCCNc1oc(-c2ccc(OC)cc2)nc1S(=O)(=O)c1ccccc1	0.72 (inactive)	3.87
COc1ccc(C2CC(c3ccc(Cl)cc3)n3nc(N)nc3N2)cc1 (stereo unspecified)	0.65 (inactive)	3.52
Cc1ccc(S(=O)(=O)N2CCC(C(=O)N[C@@H](C)C(=O)Nc3ccc4c(c3)OCO4)CC2)cc1	1.43 (inactive)	7.7
Oc1c(C(c2ccccc2)N2CCc3ccccc3C2)sc2ncnn12 (stereo unspecified)	0.45 (inactive)	2.42
CN(C)C(=O)Oc1ccc(OC(=O)c2ccccc2)cc1	1.17 (inactive)	6.32
CC(C)Cn1c2c(c(O)c(C(=O)Nc3ccc(F)cc3)c1=O)CCCC2	0.95 (inactive)	5.15
O=C(Cn1c(=O)oc2cc(S(=O)(=O)N3CCCC3)ccc21)NCc1ccccn1	1.15 (inactive)	6.19
Cc1cccc(NC(=O)CC2SC(=O)N(c3ccccc3)C2=O)c1 (stereo unspecified)	0.95 (inactive)	5.15
O=C(NCCN1C(=O)S/C(=C/c2ccccc2)C1=O)C1CCCN1C(=O)c1cccs1 (stereo unspecified)	0.61 (inactive)	3.3
COc1ccc(CCNC(=O)CSCc2ccc(Cl)cc2)cc1OC	0.67 (inactive)	3.59
CNC(=O)CSc1nnc(COc2ccc(Cl)cc2)n1CCOC	1.29 (inactive)	6.95
O=C1CC(N2CCC(O)(c3ccc(Br)cc3)CC2)C(=O)N1c1ccc(Cl)cc1 (stereo unspecified)	1.37 (inactive)	7.39
CC(/C=N/NC(=O)c1nn(C)c(C)c1Br)=C\c1ccccc1	1.25 (inactive)	6.72
O=C1c2cccc3cccc(c23)C(=O)N1CCN1CCN(CC(O)COc2ccccc2)CC1 (stereo unspecified)	0.32 (inactive)	1.71
O=C(CCCCl)NC1=NN(c2ccccc2)C(=O)C1	1.56	8.43
O=C(CCNC(=O)Cn1ccc2ccccc2c1=O)NCCc1ccccc1Cl	1.14 (inactive)	6.15
CC(C)c1ccc(C(=O)CSc2ncn[nH]2)cc1	0.96 (inactive)	5.17

From PubChem BioAssay AID844 (SRMLSC, 2007)
